Results on 15 molecules are retold here after PubChem BioAssay (NCI).

Some test systems named below: UACC-257 melanoma; 786-0 renal; SN12C renal; HCT-15 colon; MOLT-4 leukemia; CCRF-CEM leukemia; IGROV1 ovarian; HCT-116 colon; SK-MEL-28 melanoma; RPMI-8226 leukemia.
Assay in all cases: growth of human tumour cells (NCI), 48 h

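Growth conditions: 96-well plates. Treatment: test compound, 48 hours, 5 concentrations. Analysis: linear interpolation between bracketing concentrations; unreached endpoints set to highest concentration. GI50: concentration for 50% inhibition of growth. TGI: total growth inhibition.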

Turning to `O=c1c(S(=O)(=O)Oc2ccccc2)coc2cc(F)ccc12`, the TGI in the assay on UACC-257 melanoma, in the assay on 786-0 renal, in the assay with SN12C renal, in the assay on HCT-15 colon, with MOLT-4 leukemia and in the assay on CCRF-CEM leukemia was over 100 µM each time. Moreover, the TGI with IGROV1 ovarian, in the assay on HCT-116 colon and in the assay on SK-MEL-28 melanoma was over 100 µM in each case.
For `COc1cc([C@@H]2c3cc4c(cc3[C@@H](Nc3ccc(NC(=O)c5cc(NC(=O)c6cc([N+](=O)[O-])cn6C)cn5C)cc3)[C@H]3COC(=O)[C@H]23)OCO4)cc(OC)c1O`, the TGI in the assay on UACC-257 melanoma is over 82.4 µM; in the assay on 786-0 renal, over 39.7 µM; in the assay with SN12C renal, 26.5 µM; in the assay with HCT-15 colon, over 55.2 µM; in the assay with CCRF-CEM leukemia, over 37.8 µM; in the assay with IGROV1 ovarian, over 39 µM. Moreover, the TGI in the assay on HCT-116 colon was 33.3 µM; with RPMI-8226 leukemia, 0.486 µM.
For the molecule `Cc1oc2c(C)c3oc(=O)cc(C)c3cc2c1CN`, the TGI in the assay on UACC-257 melanoma, in the assay on 786-0 renal, in the assay on SN12C renal, in the assay on HCT-15 colon, with MOLT-4 leukemia and in the assay with CCRF-CEM leukemia was over 100 µM throughout. Besides, the TGI in the assay on HCT-116 colon, with SK-MEL-28 melanoma and in the assay with RPMI-8226 leukemia was over 100 µM in each case.
For `COc1cc(C)cc(OC)c1/C=C/C(=O)O`, the TGI in the assay with UACC-257 melanoma, in the assay on 786-0 renal, with SN12C renal, in the assay on HCT-15 colon, in the assay with MOLT-4 leukemia and in the assay on IGROV1 ovarian was over 100 µM throughout. The TGI with HCT-116 colon, in the assay on SK-MEL-28 melanoma and with RPMI-8226 leukemia was over 100 µM each time.
Regarding `Cc1nn(-c2ccccc2)c2c1N=C(C(=O)O)CC(c1ccccc1)=N2`, the TGI in the assay with UACC-257 melanoma, in the assay with 786-0 renal, in the assay with SN12C renal, with HCT-15 colon, in the assay with MOLT-4 leukemia and with IGROV1 ovarian was over 10 µM each time. Also, the TGI with HCT-116 colon, in the assay with SK-MEL-28 melanoma and in the assay with RPMI-8226 leukemia was over 10 µM throughout.
Turning to `O=C(NC(CO)CO)c1ccc2cc(C(=O)N3CC(CCl)c4ccc([N+](=O)[O-])cc43)[nH]c2c1` (configuration not stated), the TGI in the assay with UACC-257 melanoma, in the assay with 786-0 renal, in the assay on SN12C renal, with HCT-15 colon, in the assay with MOLT-4 leukemia and in the assay on CCRF-CEM leukemia was over 100 µM throughout. Moreover, the TGI with IGROV1 ovarian, in the assay on HCT-116 colon and with SK-MEL-28 melanoma was over 100 µM in each case.
Take `CCOC(=O)/C=C1/Nc2cc(F)c(F)cc2NC1=O`: the TGI in the assay on UACC-257 melanoma, in the assay with 786-0 renal, in the assay on SN12C renal, in the assay on HCT-15 colon, with MOLT-4 leukemia and with CCRF-CEM leukemia was over 100 µM in each case. In addition, the TGI with HCT-116 colon, in the assay with SK-MEL-28 melanoma and with RPMI-8226 leukemia was over 100 µM in each case.
With `COc1cc(C(CC(OC)OC)=C(C#N)C#N)cc(OC)c1OC`, the TGI in the assay with UACC-257 melanoma was 36.9 µM; with 786-0 renal, over 100 µM; with SN12C renal it was over 100 µM; in the assay on HCT-15 colon, over 100 µM; in the assay on MOLT-4 leukemia, 33.9 µM; in the assay on CCRF-CEM leukemia it was 59.1 µM. The TGI is over 100 µM with IGROV1 ovarian, 44.1 µM in the assay on HCT-116 colon and over 100 µM in the assay on SK-MEL-28 melanoma.
For `O=C1C=C(NCCc2cc(Br)c(O)c(Br)c2)C(=O)c2[nH]cnc21`, the TGI was 44.4 µM in the assay with UACC-257 melanoma; over 100 µM in the assay with 786-0 renal; over 100 µM with SN12C renal; over 100 µM with HCT-15 colon; 41.7 µM in the assay with CCRF-CEM leukemia; over 100 µM with IGROV1 ovarian. Besides, the TGI is 43.9 µM in the assay on HCT-116 colon and over 100 µM in the assay on SK-MEL-28 melanoma.
Take `CCc1cc2c(oc3c4ccccc4ccc23)c(=O)[nH]1`: the TGI in the assay with UACC-257 melanoma, in the assay on 786-0 renal, with MOLT-4 leukemia, with CCRF-CEM leukemia, with IGROV1 ovarian and in the assay on HCT-116 colon was over 10 µM throughout.
Consider `CCCCNCC(O)c1cc(-c2ccc(C(F)(F)F)cc2)nc(-c2ccc(C(F)(F)F)cc2)c1` (configuration not stated), for which the GI50 is 1.83 µM with UACC-257 melanoma, 1.9 µM in the assay on SN12C renal and 2.08 µM in the assay with SK-MEL-28 melanoma. Moreover, the TGI turned out to be 3.57 µM in the assay on UACC-257 melanoma, 3.55 µM in the assay with SN12C renal and 3.81 µM in the assay with SK-MEL-28 melanoma.
With `O=C1C(CN2CCCC2)CCCC1CN1CCCC1` (configuration not stated), the TGI in the assay on UACC-257 melanoma is 4.39 µM; in the assay with 786-0 renal it was 2.42 µM; in the assay with SN12C renal it was 32.5 µM; with HCT-15 colon, 4.54 µM; with CCRF-CEM leukemia it was 0.231 µM; in the assay on IGROV1 ovarian it was 32.4 µM. Further, the figures for the TGI in the assay with HCT-116 colon, in the assay on SK-MEL-28 melanoma and in the assay on RPMI-8226 leukemia were 3.28 µM, 8.94 µM and 3.97 µM, respectively.
`O=Cc1cc(O)c(O)c(/C=N/n2c3ccccc3c3ccccc32)c1`: the TGI in the assay with UACC-257 melanoma came to 27.9 µM; in the assay with 786-0 renal, 20.7 µM; in the assay on SN12C renal, 18.2 µM; in the assay on HCT-15 colon, 19.4 µM; in the assay on MOLT-4 leukemia, 12.5 µM; in the assay on CCRF-CEM leukemia, 9.87 µM. Moreover, the results for the TGI in the assay with HCT-116 colon, in the assay with SK-MEL-28 melanoma and with RPMI-8226 leukemia were 31.2 µM, 42.1 µM and 6.49 µM, respectively.
In the case of `C/C(NC(=O)c1ccccc1)=C(/C(=O)c1ccccc1)[C@@H]1OC(C)(C)O[C@@H]1[C@H]1COC(C)(C)O1`, the TGI in the assay with UACC-257 melanoma is over 100 µM; with 786-0 renal, 39.7 µM; in the assay on SN12C renal it was 60.4 µM; in the assay on HCT-15 colon, over 100 µM; in the assay with MOLT-4 leukemia, 37.2 µM; in the assay on IGROV1 ovarian, 42 µM. The TGI in the assay with HCT-116 colon is 52.5 µM; in the assay with SK-MEL-28 melanoma it was over 100 µM; in the assay on RPMI-8226 leukemia, 47.7 µM.
Turning to `Clc1cccc(N=C/C=C/Nc2cccc(Cl)c2)c1`, the TGI in the assay on UACC-257 melanoma amounted to 32.2 µM; with 786-0 renal it was 37.4 µM; with SN12C renal it was 27 µM; with HCT-15 colon it was 37.7 µM; with MOLT-4 leukemia it was 73.2 µM; in the assay with IGROV1 ovarian, 39.3 µM. The TGI in the assay on HCT-116 colon is 28.2 µM; in the assay with SK-MEL-28 melanoma, 29.6 µM; in the assay with RPMI-8226 leukemia, over 100 µM.
